The pIC50 is the negative decadic logarithm of the IC50, by convention in mol/L. As a reminder, the IC50 is the concentration needed to halve the response being measured.

The results in this text go back to patent publication US12421254B2, “KRAS modulators and uses thereof” (Quanta Therapeutics, Inc., priority 2023, dated 2025).

The target of assay [1] is GST-tagged KRAS-G12D (2-169) (Homo sapiens, UniProt P01116, G12D). Briefly: Nucleotide exchange assay (NEA), SOS-mediated, HTRF, KRAS G12D. The conditions noted are these: IC50 extracted at 30 min, 20 nM SOScat; for pIC50: Table 4, read-out: NEA G12D IC50. Type of assay: biochemical. The method, boiled down:
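Compound preincubated 1 h at RT with 0.25 nM GST-KRAS-G12D (2-169) and anti-GST Tb donor, then 20 nM SOS1cat (564-1049) and 150 nM GTP-DY-647P1 added; pH 7.3 HEPES buffer with MgCl2 and DTT. HTRF monitored at RT; % inhibition versus DMSO and no-SOS blank, 4-parameter IC50 taken at 30 min.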
(In general: In TR-FRET formats the signal depends on donor and acceptor labels being close together.)

Assay [2] has as its target GST-tagged KRAS-G12V (2-169) (Homo sapiens, UniProt P01116, G12V). The experiment in a line: Nucleotide exchange assay (NEA), SOS-mediated, HTRF, KRAS G12V. It is filed as biochemical. To be noted: Table 4; IC50 extracted at 90 min; 80 nM SOS. The method, boiled down:
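GST-KRAS-G12V (2-169), 0.25 nM, pre-incubated 1 h at RT with compound, then SOS1cat (564-1049) 80 nM and GTP-DY-647P1 150 nM added in HEPES pH 7.3 buffer with MgCl2 and DTT. HTRF via anti-GST Tb cryptate read over 90 min; IC50 from 4-parameter fit at 90 min, blanked to no-SOS reactions.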

Each structure is given as a SMILES string. pIC50: −log10 of the molar value. Read-outs that look alike come from different tables or passages of the source.

GST-tagged KRAS-G12D (2-169), sequence (P01116 2-169 isoform P01116-2 G12D): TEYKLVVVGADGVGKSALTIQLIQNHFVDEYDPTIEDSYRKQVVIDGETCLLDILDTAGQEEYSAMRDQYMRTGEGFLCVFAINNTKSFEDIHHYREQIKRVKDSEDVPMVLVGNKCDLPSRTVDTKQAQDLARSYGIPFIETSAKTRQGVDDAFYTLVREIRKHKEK
GST-tagged KRAS-G12V (2-169), sequence (P01116 2-169 isoform P01116-2 G12V): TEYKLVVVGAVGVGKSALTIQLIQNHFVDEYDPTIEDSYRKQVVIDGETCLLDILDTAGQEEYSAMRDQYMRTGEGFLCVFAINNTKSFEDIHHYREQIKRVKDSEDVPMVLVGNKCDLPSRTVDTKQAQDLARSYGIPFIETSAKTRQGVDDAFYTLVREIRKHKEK

Regarding `N#Cc1c(N)sc2c1C1(CCC2)CN(c2nc(OCC3(C#N)CC3)nc(OC[C@@]34CCCN3C[C@H](F)C4)n2)C1` [Compound 54, 2-amino-1′-[4-[(1-cyanocyclopropyl)methoxy]-6-[[(2R,8S)-2-fluoro-1,2,3,5,6,7-hexahydropyrrolizin-8-yl]methoxy]-1,3,5-triazin-2-yl]spiro[6,7-dihydro-5H-benzothiophene-4,3′-azetidine]-3-carbonitrile], the pIC50 in assay [1] was 6.00 to 7.00; in assay [2] it was 7.00 to 8.00.
The matching figures for `CC(c1cccnc1N)N(C)c1nc(OC[C@@H]2CCC(=O)N2)nc(N2CC3(CCc4sc(N)c(C#N)c43)C2)n1` (stereo partly drawn) [Compound 112, 2-amino-1′-[4-[1-(2-amino-3-pyridyl)ethyl-methyl-amino]-6-[[(2S)-5-oxopyrrolidin-2-yl]methoxy]-1,3,5-triazin-2-yl]spiro[5,6-dihydrocyclopenta[b]thiophene-4,3′-azetidine]-3-carbonitrile]: 4.70 to 6.00 and 6.00 to 7.00.
In the same order, the values of `CN(Cc1ccn[nH]1)c1nc(OC[C@@]23CCCN2C[C@H](F)C3)nc(N2CC3(CCc4sc(N)c(C#N)c43)C2)n1` (racemic) [Compound 105, 2-amino-1′-[4-[methyl(1H-pyrazol-5-ylmethyl)amino]-6-[[rac-(2R,8S)-2-fluoro-1,2,3,5,6,7-hexahydropyrrolizin-8-yl]methoxy]-1,3,5-triazin-2-yl]spiro[5,6-dihydrocyclopenta[b]thiophene-4,3′-azetidine]-3-carbonitrile] are 4.70 to 6.00 and 6.00 to 7.00.
The matching figures for `N#Cc1c(N)sc2c1C1(CN(c3nc(OCC4(CN5CCOCC5)CC4)nc(N4CCNC[C@@H]4C(F)F)n3)C1)SC2` [Compound 193, (R)-2′-amino-1-(4-(2-(difluoromethyl)piperazin-1-yl)-6-((1-(morpholinomethyl)cyclopropyl)methoxy)-1,3,5-triazin-2-yl)-6′H-spiro[azetidine-3,4′-thieno[3,4-b]thiophene]-3′-carbonitrile]: greater than 8.00 and 7.00 to 8.00.
`N#Cc1c(N)sc2c1C1(CN(c3nc(OC[C@@]45CCCN4C[C@H](F)C5)nc(N4C5COCC4C5)n3)C1)SC2` [Compound 265, 2-amino-1′-[4-[[(2R,8S)-2-fluoro-1,2,3,5,6,7-hexahydropyrrolizin-8-yl]methoxy]-6-(3-oxa-6-azabicyclo[3.1.1]heptan-6-yl)-1,3,5-triazin-2-yl]spiro[6H-thieno[3,4-b]thiophene-4,3′-azetidine]-3-carbonitrile]: the values for the pIC50 in assay [1] and in assay [2] were 6.00 to 7.00 and 7.00 to 8.00, respectively.
The matching figures for `N#Cc1c(N)sc2c1C1(CN(c3nc(OC[C@@]45CCCN4C[C@H](F)C5)nc(Oc4cn[nH]c4)n3)C1)SC2` [Compound 164, 2-amino-1′-[4-[[(2R,8S)-2-fluoro-1,2,3,5,6,7-hexahydropyrrolizin-8-yl]methoxy]-6-(1H-pyrazol-4-yloxy)-1,3,5-triazin-2-yl]spiro[6H-thieno[3,4-b]thiophene-4,3′-azetidine]-3-carbonitrile]: 6.00 to 7.00 and 7.00 to 8.00.
The matching figures for `C[C@H](c1cccnc1N)N(C)c1nc(OC[C@@]23CCCN2C[C@H](F)C3)nc(N2CC3(CCc4cnn(C)c43)C2)n1` [Compound 278, N-[(1R)-1-(2-amino-3-pyridyl)ethyl]-4-[[(2R,8S)-2-fluoro-1,2,3,5,6,7-hexahydropyrrolizin-8-yl]methoxy]-N-methyl-6-(1-methylspiro[4,5-dihydrocyclopenta[d]pyrazole-6,3′-azetidine]-1′-yl)-1,3,5-triazin-2-amine]: 4.70 to 6.00 and 4.70 to 6.00.
In the same order, the values of `CC1(O)COCCN(c2nc(OC[C@@]34CCCN3C[C@H](F)C4)nc(N3CC4(C3)SCc3sc(N)c(C#N)c34)n2)C1` (stereo partly drawn) [Compound 268, 2-amino-1′-[4-[[(2R,8S)-2-fluoro-1,2,3,5,6,7-hexahydropyrrolizin-8-yl]methoxy]-6-(6-hydroxy-6-methyl-1,4-oxazepan-4-yl)-1,3,5-triazin-2-yl]spiro[6H-thieno[3,4-b]thiophene-4,3′-azetidine]-3-carbonitrile] are greater than 8.00 and greater than 8.00.
Take `N#Cc1c(N)sc2c1C1(CN(c3nc(OCC4(CN5CCOCC5)CC4)nc(N4CCNC[C@@H]4CO)n3)C1)SC2` [Compound 185, (R)-2′-amino-1-(4-(2-(hydroxymethyl)piperazin-1-yl)-6-((1-(morpholinomethyl)cyclopropyl)methoxy)-1,3,5-triazin-2-yl)-6′H-spiro[azetidine-3,4′-thieno[3,4-b]thiophene]-3′-carbonitrile]: the figures for the pIC50 in assay [1] and in assay [2] were greater than 8.00 and 6.00 to 7.00, respectively.
In the same order, the values of `C[C@H](c1ccc(P(C)(C)=O)nc1N)N(C)c1nc(OC[C@@]23CCCN2C[C@H](F)C3)nc(N2CC3(C2)SCc2sc(N)c(C#N)c23)n1` [Compound 232, 2-amino-1′-[4-[1-(2-amino-6-dimethylphosphoryl-3-pyridyl)ethyl-methyl-amino]-6-[[(2R,8S)-2-fluoro-1,2,3,5,6,7-hexahydropyrrolizin-8-yl]methoxy]-1,3,5-triazin-2-yl]spiro[6H-thieno[3,4-b]thiophene-4,3′-azetidine]-3-carbonitrile] are 4.70 to 6.00 and 6.00 to 7.00.
In the same order, the values of `N#Cc1c(N)sc2c1C1(CN(c3nc(OC[C@@]45CCCN4C[C@H](F)C5)nc(N(CC4(O)CC4)C4(C#N)CC4)n3)C1)SC2` [Compound 263, 2-amino-1′-[4-[(1-cyanocyclopropyl)-[(1-hydroxycyclopropyl)methyl]amino]-6-[[(2R,8S)-2-fluoro-1,2,3,5,6,7-hexahydropyrrolizin-8-yl]methoxy]-1,3,5-triazin-2-yl]spiro[6H-thieno[3,4-b]thiophene-4,3′-azetidine]-3-carbonitrile] are 7.00 to 8.00 and 7.00 to 8.00.
In the same order, the values of `CC(c1c[nH]nc1Cl)N(C)c1nc(OC[C@@]23CCCN2C[C@H](F)C3)nc(N2CC3(CCc4sc(N)c(C#N)c43)C2)n1` (stereo partly drawn) [Compound 140, 2-amino-1′-[4-[1-(3-chloro-1H-pyrazol-4-yl)ethyl-methyl-amino]-6-[[(2R,8S)-2-fluoro-1,2,3,5,6,7-hexahydropyrrolizin-8-yl]methoxy]-1,3,5-triazin-2-yl]spiro[5,6-dihydrocyclopenta[b]thiophene-4,3′-azetidine]-3-carbonitrile] are 4.70 to 6.00 and 6.00 to 7.00.
Regarding `CC(c1cccnc1N)N(C)c1nc(OC[C@@]23CCCN2C[C@H](F)C3)nc(N2CC3(CCc4sc(N)c(C#N)c43)C2)n1` (stereo partly drawn) [Compound 83, 2-amino-1′-[4-[1-(2-amino-3-pyridyl)ethyl-methyl-amino]-6-[[(2R,8S)-2-fluoro-1,2,3,5,6,7-hexahydropyrrolizin-8-yl]methoxy]-1,3,5-triazin-2-yl]spiro[5,6-dihydrocyclopenta[b]thiophene-4,3′-azetidine]-3-carbonitrile], the pIC50 in assay [1] and in assay [2] was greater than 8.00 each time.
On to `CC(c1cccnc1C(F)F)N(C)c1nc(OC[C@@]23CCCN2C[C@H](F)C3)nc(N2CC3(C2)SCc2sc(N)c(C#N)c23)n1` (stereo partly drawn) [Compound 205, 2-amino-1′-[4-[1-[2-(difluoromethyl)-3-pyridyl]ethyl-methyl-amino]-6-[[(2R,8S)-2-fluoro-1,2,3,5,6,7-hexahydropyrrolizin-8-yl]methoxy]-1,3,5-triazin-2-yl]spiro[6H-thieno[3,4-b]thiophene-4,3′-azetidine]-3-carbonitrile], for which the pIC50 is 4.70 to 6.00 in assay [1] and 6.00 to 7.00 in assay [2].
The matching figures for `C[C@@]1(O)CCCN(c2nc(OCC3(CN4CCOCC4)CC3)nc(N3CCC4(CCCc5sc(N)c(C#N)c54)C3)n2)C1` (stereo partly drawn) [Compound 64, 2-amino-1′-[4-[(3R)-3-hydroxy-3-methyl-1-piperidyl]-6-[[1-(morpholinomethyl)cyclopropyl]methoxy]-1,3,5-triazin-2-yl]spiro[6,7-dihydro-5H-benzothiophene-4,3′-pyrrolidine]-3-carbonitrile]: 4.70 to 6.00 and 4.70 to 6.00.
In the same order, the values of `CC1(O)COCCN(c2nc(OCC3(CN4CCOCC4)CC3)nc(N3CC4(C3)SCc3sc(N)c(C#N)c34)n2)C1` (centres unmarked) [Compound 270, 2-amino-1′-[4-(6-hydroxy-6-methyl-1,4-oxazepan-4-yl)-6-[[1-(morpholinomethyl)cyclopropyl]methoxy]-1,3,5-triazin-2-yl]spiro[6H-thieno[3,4-b]thiophene-4,3′-azetidine]-3-carbonitrile] are greater than 8.00 and greater than 8.00.
For the molecule `C[C@@]1(O)CCCN(c2nc(OC[C@@]34CCCN3C[C@H](F)C4)nc(N3CCC4(CCc5sc(N)c(C#N)c54)C3)n2)C1` (stereo partly drawn) [Compound 11, 2-amino-1′-[4-[[(2R,8S)-2-fluoro-1,2,3,5,6,7-hexahydropyrrolizin-8-yl]methoxy]-6-[(3R)-3-hydroxy-3-methyl-1-piperidyl]-1,3,5-triazin-2-yl]spiro[5,6-dihydrocyclopenta[b]thiophene-4,3′-pyrrolidine]-3-carbonitrile], the IC50 in assay [1] (Table 2, read-out: NEA-G12D (uM) IC50) lay in the range of 0.1 to 1 µM. Besides, the pIC50 in assay [1] and in assay [2] was 6.00 to 7.00 throughout.
